Structures are written as SMILES. The source made the active and inactive calls. No cut-off for these calls is given here.

We go through 21 molecules from ChEMBL document CHEMBL4229436, “Synthesis and biological evaluation of Complex I inhibitor R419 and its derivatives as anticancer agents in HepG2 cells” (Bioorg Med Chem Lett, 2018).

Experiment [1] has as its system HepG2. Description: Cytotoxicity against human HepG2 cells after 72 hrs by MTT assay. Format: functional, cell-based. The settings on record: HepG2, 72 h. (In general: Tetrazolium dyes change colour on reduction, which living cells bring about.)
Experiment [2] relates to A549. Description: Cytotoxicity against human A549 cells after 72 hrs by MTT assay. Type of experiment: functional, cell-based. Conditions: A549, 72 h.
For experiment [3], the target named is AMP-activated protein kinase, AMPK (Homo sapiens) (UniProt P54646+O43741+P54619+Q9UGJ0+Q9Y478+Q13131+Q9UGI9). Description: Activation of AMPK in human HepG2 cells after 24 hrs by Western blot analysis. Type of experiment: cell-based. (In western blotting, separated proteins are transferred to a membrane and probed.)
The species entered for experiment [4] is Homo sapiens. Description: Inhibition of NADH-ubiquinone oxidoreductase (unknown origin).
In experiment [5] the test system is L02. Description: Cytotoxicity against human L02 cells after 72 hrs by MTT assay. Type of experiment: cell-based. Conditions: L02, 72 h.
The test system of experiment [6] is HepG2. Description: Induction of intracellular ATP depletion in human HepG2 cells at 0.3 uM after 44 hrs by luminescence based spectrophotometric method. Format: functional, cell-based.
The test system of experiment [7] is HepG2. Description: Induction of apoptosis in human HepG2 cells assessed as live cells at 3 uM after 40 hrs by Annexin-V-FITC/propidium iodide staining based flow cytometry (reference value: 82.6%). Format: functional. On the technique in general: A flow cytometer gives signals particle by particle.
The species entered for experiment [8] is Homo sapiens. Description: Inhibition of NADH-ubiquinone oxidoreductase (unknown origin) at 50 uM.
Experiment [9] relates to HepG2. Description: Induction of intracellular ATP depletion in human HepG2 cells at 3 uM after 44 hrs by luminescence based spectrophotometric method. Type of experiment: functional, cell-based.
In experiment [10] the test system is HepG2. Description: Induction of apoptosis in human HepG2 cells assessed as necrotic cells at 3 uM after 40 hrs by Annexin-V-FITC/propidium iodide staining based flow cytometry (reference value: 7%). Type of experiment: functional.
The subject of experiment [11] is HepG2. Description: Induction of apoptosis in human HepG2 cells assessed as early apoptotic cells at 0.3 uM after 40 hrs by Annexin-V-FITC/propidium iodide staining based flow cytometry (reference value: 2.8%). Format: functional.
Experiment [12] deals with HepG2. Description: Induction of apoptosis in human HepG2 cells assessed as late apoptotic cells at 0.3 uM after 40 hrs by Annexin-V-FITC/propidium iodide staining based flow cytometry (reference value: 7.6%). Format: functional.
The subject of experiment [13] is HepG2. Description: Induction of apoptosis in human HepG2 cells assessed as PARP cleavage at 0.1 to 30 uM after 24 hrs by Western blot analysis. Format: functional, cell-based.
Experiment [14] concerns HepG2. Description: Reduction in Bcl2 to bax ratio in human HepG2 cells at 0.1 to 30 uM after 24 hrs by Western blot analysis. Type of experiment: functional, cell-based.
Experiment [15] deals with HepG2. Description: Induction of apoptosis in human HepG2 cells assessed as live cells at 0.3 uM after 40 hrs by Annexin-V-FITC/propidium iodide staining based flow cytometry (reference value: 82.6%). Type of experiment: functional.
In experiment [16] the test system is HepG2. Description: Induction of apoptosis in human HepG2 cells assessed as early apoptotic cells at 3 uM after 40 hrs by Annexin-V-FITC/propidium iodide staining based flow cytometry (reference value: 2.8%). Type of experiment: functional.
For experiment [17], the system named is HepG2. Description: Induction of apoptosis in human HepG2 cells assessed as late apoptotic cells at 3 uM after 40 hrs by Annexin-V-FITC/propidium iodide staining based flow cytometry (reference value: 7.6%). Format: functional.
In experiment [18] the test system is HepG2. Description: Induction of apoptosis in human HepG2 cells assessed as necrotic cells at 0.3 uM after 40 hrs by Annexin-V-FITC/propidium iodide staining based flow cytometry (reference value: 7%). Format: functional.
Experiment [19] concerns HepG2. Description: Induction of apoptosis in human HepG2 cells assessed as caspase-3 cleavage at 0.1 to 30 uM after 24 hrs by Western blot analysis. Format: functional, cell-based.

As a reminder, the IC50 is the midpoint of a concentration-inhibition curve. Molecule `O=C(COc1ccc2c(=O)c(-c3ccccc3)coc2c1)N1CCN(Cc2ccccc2)CC1` gave a 50% inhibitory concentration (IC50) in experiment [1] greater than 20 µM.
Molecule `O=C(COc1ccc2c(=O)cc(-c3ccccc3)oc2c1)NC1CCN(Cc2ccc(C(F)(F)F)cc2)CC1` yielded a half-inhibitory concentration (IC50) in experiment [1] of 7.2 µM.
In the case of `COc1ccc(CN2CCC(NC(=O)COc3ccc(-c4cc(=O)c5ccccc5o4)cc3)CC2)cc1`, inhibition in experiment [1] was half-maximal at 6.8 µM (IC50).
Take `COc1ccc(CN2CCC(NC(=O)COc3ccc4c(=O)c(-c5ccccc5)coc4c3)CC2)cc1`: the IC50 in experiment [1] was greater than 20 µM.
`O=C(COc1ccc2c(=O)cc(-c3ccccc3)oc2c1)N1CCN(Cc2ccccc2)CC1` gave an IC50 in [1] greater than 20 µM.
Still for that read-out and setting: to `CC(C)(Oc1ccc2c(=O)cc(-c3ccccc3)oc2c1)C(=O)NC1CCN(Cc2ccccc2)CC1` belongs 14 µM; to `O=C(COc1ccc2c(=O)c(-c3ccccc3)coc2c1)NC1CCN(Cc2ccccc2)CC1`, greater than 20 µM.
Take `O=C(COc1ccc2c(=O)cc(-c3ccccc3)oc2c1)NC1CCN(Cc2ccccc2)CC1`: in [1], the 50% inhibitory concentration (IC50) was found to be 16.7 µM.
Consider `COc1ccc(C(=O)C2CCN(C(=O)c3ccc(C(=O)NC4CCN(Cc5ccc(C#N)cc5)CC4)cn3)CC2)cc1`, for which the concentration for half-maximal inhibition (IC50) in experiment [2] was 19.5 µM; in experiment [5] it was 25.9 µM; in [1] it was 5.2 µM. Moreover, the result in [3] was Active. The inhibition entry in experiment [4] was “Dose-dependent effect”.
The molecule `N#Cc1ccc(CN2CCC(NC(=O)COc3ccc4c(=O)cc(-c5ccccc5)oc4c3)CC2)cc1` registered an IC50 in [1] of 9.3 µM.
Still for that read-out and setting: in the case of `O=C(COc1ccc(-c2cc(=O)c3ccccc3o2)cc1)NC1CCN(Cc2ccccc2)CC1` it was 15.5 µM.
Still for that read-out and setting: in the case of `N#Cc1ccc(CN2CCC(NC(=O)COc3ccc(-c4cc(=O)c5ccccc5o4)cc3)CC2)cc1` it was 6.7 µM.
On to `COc1ccc(CN2CCC(NC(=O)C(C)(C)Oc3ccc4c(=O)cc(-c5ccccc5)oc4c3)CC2)cc1`, for which, in experiment [1], the half-maximal inhibitory concentration (IC50) was determined as 8.7 µM.
In [1], `CC(C)(Oc1ccc(-c2cc(=O)c3ccccc3o2)cc1)C(=O)NC1CCN(Cc2ccccc2)CC1` displayed a half-maximal inhibitory concentration (IC50) greater than 20 µM.
In experiment [1], `N#Cc1ccc(CN2CCC(NC(=O)COc3ccc4c(=O)c(-c5ccccc5)coc4c3)CC2)cc1` gave an IC50 greater than 20 µM.
`O=C(COc1ccc(-c2cc(=O)c3ccccc3o2)cc1)N1CCN(Cc2ccccc2)CC1` had a concentration for half-maximal inhibition (IC50) in experiment [1] greater than 20 µM.
On to `CC(C)(Oc1ccc2c(=O)cc(-c3ccccc3)oc2c1)C(=O)NC1CCN(Cc2ccc(C(F)(F)F)cc2)CC1`, for which the half-maximal inhibitory concentration (IC50) in [1] was greater than 20 µM.
The molecule `O=C(COc1ccc2c(=O)cc(-c3ccccc3)oc2c1)NC1CCN(C(=O)c2ccccc2)CC1` showed a half-inhibitory concentration (IC50) in experiment [1] greater than 20 µM.
In the case of `COc1ccc(CN2CCC(NC(=O)C(C)(C)Oc3ccc(-c4cc(=O)c5ccccc5o4)cc3)CC2)cc1`, the outcome in experiment [6], in experiment [13] and in [19] was inactive. Also, the IC50 stood at 40 µM in experiment [2], 17.6 µM in [5] and 2.8 µM in experiment [1]. The Activity is 53.4% in [7]; “Dose-dependent effect” in experiment [3]; 46.4% in experiment [10]; 1.6% in experiment [11]; 7.3% in experiment [12]; 80.2% in experiment [15]. In addition, the Activity was found to be 0% in experiment [16], 0.2% in [17] and 11% in experiment [18]. Besides, the inhibition entry in experiment [8] is “Active”. Also, the outcome in experiment [9] and in experiment [14] was Active. Also, the inhibition entry in experiment [4] is “Dose-dependent effect”.
As for `CC(C)(Oc1ccc2c(=O)c(-c3ccccc3)coc2c1)C(=O)NC1CCN(Cc2ccccc2)CC1`, the IC50 in [1] is greater than 20 µM.
Turning to `O=C(COc1ccc(-c2cc(=O)c3ccccc3o2)cc1)NC1CCN(C(=O)c2ccccc2)CC1`, the IC50 in experiment [1] is greater than 20 µM.
